Measured values published in patent US20190240337A1, “EPINEPHRINE FORMULATIONS FOR MEDICINAL PRODUCTS” (priority 2013, published 2019).
Where two headings read alike, the source gives them in different places.

Conditions: aqueous solution
Experimental: In addition, an equilibrium constant of inclusion complex between epinephrine and sulfobutyl ether β-cyclodextrin (SBE-CD) in aqueous solution was determined using a spectroscopy technique, i.e., UV spectrophotometer as shown in FIG. 1. The equilibrium constant (K) between epinephrine and SBE-CD was determined by increasing the molar concentration ratio of SBD-CD to epinephrine in solution and measuring the spectral shift (ΔA) as shown FIG. 2 at pH 3.5. The K value was derived from the slope and intercept of a linear relationship from a plot between [Epi][SBD-CD]/ΔA and [SBD-CD] according to the Hildebrand and Benesi equation as shown in FIG. 2 (Rong Liu, Editor, Water-Insoluble Drug Formulation, Interpharm Press, 2000; and F. Cramer et. al., The Formation of Inclusion Compounds of a-Cyclodextrin in Aqueous Solutions, J. Am. Chem. Soc., 89, 14-20, 1967, the disclosures of which are incorporated herein by reference in their entireties).

For `CNCC(O)c1ccc(O)c(O)c1` (single isomer, unassigned; (-)) [epinephrine, (−)-3,4-Dihydroxy-α-[(methylamino)methyl]benzyl alcohol], the “equilibrium constant (K) between epinephrine and SBE-CD” value (pH 3.5, room temperature) was 488 M⁻¹ and the “equilibrium constant (K) between epinephrine and SBE-CD” value (pH 5.5) was 111 M⁻¹.
